Structures can show the parent of a compound that is named as a salt.

The values that follow come from patent publication US20120184556A1, “SUBSTITUTED ENZOIMIDAZOLESULFONAMIDES AND SUBSTITUTED INDOLESULFONAMIDES AS MGLUR4 POTENTIATORS” (priority 2009, published 2012).

The assay concerns the target T1, human mGluR4 (Homo sapiens, UniProt Q14833).
T1 construct: expressed in transfected cells; host or cells: Chinese Hamster Ovary (CHO) cells
As to the kind of experiment: human mGluR4 potentiation assay, CHO cells, Fluo-4 calcium fluorescence, agonist EC20. It is filed as cell-based. The note with it: for Emax: CHO, maximum extent of potentiation, human mGluR4, read-out: GluMax; for EC50: potentiation of human mGluR4 response to EC20 agonist, read-out: hEC50. On the procedure: The disclosed compounds and compositions can be evaluated for their ability to act as a potentiator of metabotropic glutamate receptor activity, in particular mGluR4 activity, by any suitable known methodology known in the art. For example, Chinese Hamster Ovary (CHO) cells transfected with human mGluR4 or HEK cells co-transfected with rat mGluR4 and the G-protein regulated Inwardly Rectifying Potassium channel (GIRK) were plated in clear bottom assay plates for assay in a Hamamatsu FDSS Fluorometric Plate Reader. The cells were loaded with either the Ca2+-sensitive fluorescent dye Fluo-4 or the thallium responsive dye BTC, AM and the plates were washed and placed into a suitable kinetic plate reader. For human mGluR4 assays, a fluorescence baseline was established for 3-5 seconds, the disclosed compounds were then added to the cells, and the response in cells was measured. Approximately two and a half minutes later, a concentration of mGluR4 agonist (e.g. glutamate or L-AP4) eliciting approximately 20% (EC20) of the maximal agonist response was added to the cells, and the response was measured. Two minutes later, a concentration of mGluR4 agonist (e.g. glutamate or L-AP4) eliciting 80% (EC80) of the maximal agonist response was added to the cells, and the response was measured. For rat mGluR4/GIRK experiments, a baseline was established for approximately five seconds, disclosed compounds were added, and either an EC20 or EC80 concentration of agonist was added approximately two and one half minutes later. Potentiation of the agonist response of mGluR4 by the disclosed compounds was observed as an increase in response to the EC20 concentration of agonist in the presence of compound compared to the response to agonist in the absence of compound. Similarly, antagonism of the agonist response of mGluR4 by the disclosed compounds was observed as a decrease in response to the EC80 concentration of agonist in the presence of compound compared to the response to agonist in the absence of compound.
The above described assay operated in two modes. In the first mode, a range of concentrations of the disclosed compounds are added to cells, followed by a single fixed concentration of agonist. If the compound acts as a potentiatior, an EC50 value for potentiation and a maximum extent of potentiation by the compound at this concentration of agonist is determined by non-linear curve fitting. If the compound acts as a noncompetitive antagonist, an IC50 value is determined by non-linear curve fitting. In the second mode, several fixed concentrations of the disclosed compounds are added to various wells on a plate, followed by a range in concentrations of agonist for each concentration of disclosed compound. The EC50 values for the agonist at each concentration of compound are determined by non-linear curve fitting. A decrease in the EC50 value of the agonist with increasing concentrations of the sample compound (a leftward shift of the agonist concentration-response curve) is an indication of the degree of mGluR4 potentiation at a given concentration of the sample compound. A decrease in the maximal response of the agonist with increasing concentrations of the sample compounds, with or without a rightward shift in agonist potency, is an indication of the degree of noncompetitive antagonism at mGluR4. The second mode also indicates whether the sample compounds also affect the maximum response to mGluR4 to agonists.

T1 sequence (Q14833 33-912): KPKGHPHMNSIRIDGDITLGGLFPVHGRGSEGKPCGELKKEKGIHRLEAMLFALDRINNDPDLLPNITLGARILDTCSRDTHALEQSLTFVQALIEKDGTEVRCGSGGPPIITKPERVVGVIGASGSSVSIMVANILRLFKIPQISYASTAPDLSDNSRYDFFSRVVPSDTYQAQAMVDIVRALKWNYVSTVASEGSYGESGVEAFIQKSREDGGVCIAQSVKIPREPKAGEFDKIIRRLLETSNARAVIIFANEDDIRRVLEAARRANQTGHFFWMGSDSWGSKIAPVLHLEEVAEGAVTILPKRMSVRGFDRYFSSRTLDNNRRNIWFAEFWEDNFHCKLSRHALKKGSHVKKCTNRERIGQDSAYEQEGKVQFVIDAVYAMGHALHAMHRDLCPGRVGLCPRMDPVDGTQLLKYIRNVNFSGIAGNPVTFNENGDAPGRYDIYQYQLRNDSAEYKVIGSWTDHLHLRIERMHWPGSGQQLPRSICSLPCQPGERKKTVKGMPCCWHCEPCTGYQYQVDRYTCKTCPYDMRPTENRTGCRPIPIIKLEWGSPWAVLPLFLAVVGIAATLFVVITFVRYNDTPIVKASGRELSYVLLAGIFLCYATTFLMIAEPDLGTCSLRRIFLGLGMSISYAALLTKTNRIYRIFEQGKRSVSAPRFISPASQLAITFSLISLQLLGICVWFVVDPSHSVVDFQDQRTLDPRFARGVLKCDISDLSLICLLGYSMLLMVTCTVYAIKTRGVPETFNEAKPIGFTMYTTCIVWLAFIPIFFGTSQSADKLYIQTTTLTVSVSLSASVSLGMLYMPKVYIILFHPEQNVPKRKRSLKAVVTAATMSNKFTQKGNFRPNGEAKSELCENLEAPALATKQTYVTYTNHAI

Regarding `O=S(=O)(Nc1ccccc1Cl)c1ccc2[nH]c(-c3ncccc3F)nc2c1` [Example 15, N-(2-Chlorophenyl)-2-(3-fluoropyridin-2-yl)-1H-benzo[d]imidazole-5-sulfonamide], the Emax was found to be 192% and the EC50 was found to be 747 nM.

For `O=S(=O)(Nc1cccnc1)c1ccc2[nH]c(-c3ccccc3)nc2c1` [Example 16, 2-Phenyl-N-(pyridin-3-yl)-1H-benzo[d]imidazole-5-sulfonamide bis TFA salt], the Emax amounted to 41% and the EC50 was 5950 nM.

Turning to `O=S(=O)(Nc1ccccc1F)c1ccc2[nH]c(-c3ccccc3)nc2c1` [Example 17, N-(2-Fluorophenyl)-2-phenyl-1H-benzo[d]imidazole-5-sulfonamide TFA salt], the Emax was 87% and the EC50 came to 320 nM.

As for `O=S(=O)(NC1CCCC1)c1ccc2[nH]c(-c3ccccc3)nc2c1` [Example 18, N-Cyclopentyl-2-phenyl-1H-benzo[d]imidazole-5-sulfonamide TFA salt], the Emax came to 105% and the EC50 turned out to be 11700 nM.

`N#Cc1ccc(NS(=O)(=O)c2ccc3[nH]c(-c4ccccc4)nc3c2)cc1` [Example 19, N-(4-Cyanophenyl)-2-phenyl-1H-benzo[d]imidazole-5-sulfonamide TFA salt]: the Emax stood at 24% and the EC50 stood at 4900 nM.

In the case of `O=S(=O)(Nc1ccccc1Cl)c1ccc2[nH]c(-c3cccc4c3OCO4)nc2c1` [Example 20, 2-(benzo[d][1,3]dioxol-4-yl)-N-(2-chlorophenyl)-1H-benzo[d]imidazole-5-sulfonamide], the Emax stood at 49% and the EC50 was 172 nM.

`O=S(=O)(Nc1ccccc1Cl)c1ccc2[nH]c(-c3ccccc3F)nc2c1` [Example 21, N-(2-chlorophenyl)-2-(2-fluorophenyl)-1H-benzo[d]imidazole-5-sulfonamide]: the Emax stood at 64% and the EC50 amounted to 988 nM.

As to `O=S(=O)(Nc1ccccc1Cl)c1ccc2[nH]c(-c3c(F)cccc3Cl)nc2c1` [Example 22, 2-(2-chloro-6-fluorophenyl)-N-(2-chlorophenyl)-1H-benzo[d]imidazole-5-sulfonamide], the Emax amounted to 59% and the EC50 amounted to 5750 nM.

For `O=S(=O)(Nc1ccccc1Cl)c1ccc2[nH]c(-c3ccccc3C(F)(F)F)nc2c1` [Example 23, N-(2-chlorophenyl)-2-(2-(trifluoromethyl)phenyl)-1H-benzo[d]imidazole-5-sulfonamide], the Emax amounted to 36% and the EC50 was found to be 9440 nM.

For `O=S(=O)(Nc1ccccc1Cl)c1ccc2[nH]c(-c3c(F)cccc3F)nc2c1` [Example 24, N-(2-chlorophenyl)-2-(2,6-difluorophenyl)-1H-benzo[d]imidazole-5-sulfonamide], the Emax is 160% and the EC50 is > 10000 nM.

With `O=S(=O)(Nc1ccccc1Cl)c1ccc2[nH]c(-c3ccco3)nc2c1` [Example 25, N-(2-chlorophenyl)-2-(furan-2-yl)-1H-benzo[d]imidazole-5-sulfonamide], the Emax was 96% and the EC50 turned out to be 747 nM.

Regarding `O=S(=O)(Nc1ccccc1Cl)c1ccc2[nH]c(-c3ccc(C(F)(F)F)o3)nc2c1` [Example 26, N-(2-chlorophenyl)-2-(5-(trifluoromethyl)furan-2-yl)-1H-benzo[d]imidazole-5-sulfonamide], the Emax was found to be 68% and the EC50 worked out at 328 nM.

With `O=S(=O)(Nc1ccccc1Cl)c1ccc2[nH]c(-c3ncc[nH]3)nc2c1` [Example 27, N-(2-chlorophenyl)-2-(1H-imidazol-2-yl)-1H-benzo[d]imidazole-5-sulfonamide], the Emax worked out at 69% and the EC50 amounted to 12800 nM.

`O=S(=O)(Nc1c(F)cccc1F)c1ccc2[nH]c(-c3ccccc3)nc2c1` [Example 28, N-(2,6-difluorophenyl)-2-phenyl-1H-benzo[d]imidazole-5-sulfonamide]: the Emax turned out to be 38% and the EC50 stood at 318 nM.
